Data: the supplement of paper PMC10307832

Experiments:
Assay in all cases: relative viability (nuclei count vs DMSO), 5 days (fraction); higher = more cells survive
[1] = test system: H3255
Procedure, shortened: (§1)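 Medians of duplicate plates are given as relative viability. That measure is the nuclei count in treated wells divided by the count in vehicle wells. Counts were taken on 4× images of lung cancer cell lines in 1536-well plates, 5 days after pin-tool dosing the day after seeding with one drug alone or a fixed anchor-drug dose plus five library-drug doses (not always all listed) in √10 steps.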

[2] = test system: NCI-H1993
Procedure, shortened: as §1

[3] = test system: NCI-H1975
Procedure, shortened: as §1

[4] = test system: LU99A
Procedure, shortened: as §1

[5] = test system: NCI-H647
Procedure, shortened: as §1

[6] = test system: NCI-H838
Procedure, shortened: as §1

[7] = test system: LC-2-ad
Procedure, shortened: as §1

[8] = test system: HCC-366
Procedure, shortened: as §1

[9] = test system: HCC-15
Procedure, shortened: as §1

[10] = test system: PC-3 [JPC-3]
Procedure, shortened: as §1

[11] = test system: HARA
Procedure, shortened: as §1

[12] = test system: NCI-H2228
Procedure, shortened: as §1

[13] = test system: NCI-H661
Procedure, shortened: as §1

[14] = test system: NCI-H1666
Procedure, shortened: as §1

[15] = test system: CAL-12T
Procedure, shortened: as §1

[16] = test system: NCI-H520
Procedure, shortened: as §1

[17] = test system: NCI-H1734
Procedure, shortened: as §1

[18] = test system: SK-LU-1
Procedure, shortened: as §1

[19] = test system: COR-L 105
Procedure, shortened: as §1

[20] = test system: NCI-H3122
Procedure, shortened: as §1

[21] = test system: PC-14
Procedure, shortened: as §1

O=C(O)CCCCC(CCSCc1ccccc1)SCc1ccccc1 (stereo not given) [CPI-613] + CC(C)C[C@H](NC(=O)[C@H](Cc1ccccc1)NC(=O)c1cnccn1)B(O)O [Bortezomib] (partner 0.002 µM)
relative viability ([1]; first compound 5 µM): 0.815 | relative viability ([1]; first compound 15.81 µM): 0.719 | relative viability ([1]; first compound 50 µM): 0.781 | relative viability ([1]; first compound 158.11 µM): 0.734 | relative viability ([1]; first compound 500 µM): 0.736 | relative viability ([2]; first compound 5 µM): 0.953 | relative viability ([2]; first compound 15.81 µM): 0.918 | relative viability ([2]; first compound 50 µM): 0.943 | relative viability ([2]; first compound 158.11 µM): 0.717 | relative viability ([2]; first compound 500 µM): 0.363 | relative viability ([3]; first compound 5 µM): 0.445 | relative viability ([3]; first compound 15.81 µM): 0.448 | relative viability ([3]; first compound 50 µM): 0.394 | relative viability ([3]; first compound 158.11 µM): 0.174 | relative viability ([3]; first compound 500 µM): 0.0487 | relative viability ([4]; first compound 5 µM): 1.04 | relative viability ([4]; first compound 15.81 µM): 1.04 | relative viability ([4]; first compound 50 µM): 0.961 | relative viability ([4]; first compound 158.11 µM): 0.815 | relative viability ([4]; first compound 500 µM): 0.08 | relative viability ([5]; first compound 5 µM): 0.861 | relative viability ([5]; first compound 15.81 µM): 0.8 | relative viability ([5]; first compound 50 µM): 0.962 | relative viability ([5]; first compound 158.11 µM): 0.0678 | relative viability ([5]; first compound 500 µM): 0.0092 | relative viability ([6]; first compound 5 µM): 0.867 | relative viability ([6]; first compound 15.81 µM): 0.702 | relative viability ([6]; first compound 50 µM): 1.02 | relative viability ([6]; first compound 158.11 µM): 0.425 | relative viability ([6]; first compound 500 µM): 0.0658 | relative viability ([7]; first compound 5 µM): 0.621 | relative viability ([7]; first compound 15.81 µM): 0.932 | relative viability ([7]; first compound 50 µM): 0.979 | relative viability ([7]; first compound 158.11 µM): 0.259 | relative viability ([7]; first compound 500 µM): 0.0023 | relative viability ([8]; first compound 5 µM): 1.01 | relative viability ([8]; first compound 15.81 µM): 0.957 | relative viability ([8]; first compound 50 µM): 1.06 | relative viability ([8]; first compound 158.11 µM): 0.391 | relative viability ([8]; first compound 500 µM): 0.0068 | relative viability ([9]; first compound 5 µM): 0.938 | relative viability ([9]; first compound 15.81 µM): 0.932 | relative viability ([9]; first compound 50 µM): 0.905 | relative viability ([9]; first compound 158.11 µM): 0.757 | relative viability ([9]; first compound 500 µM): 0.394 | relative viability ([10]; first compound 5 µM): 0.83 | relative viability ([10]; first compound 15.81 µM): 0.695 | relative viability ([10]; first compound 50 µM): 0.755 | relative viability ([10]; first compound 158.11 µM): 0.451 | relative viability ([10]; first compound 500 µM): 0.452 | relative viability ([11]; first compound 5 µM): 1.02 | relative viability ([11]; first compound 15.81 µM): 1.09 | relative viability ([11]; first compound 50 µM): 1.19 | relative viability ([11]; first compound 158.11 µM): 0.716 | relative viability ([11]; first compound 500 µM): 0.114 | relative viability ([12]; first compound 5 µM): 0.918 | relative viability ([12]; first compound 15.81 µM): 1.04 | relative viability ([12]; first compound 50 µM): 1.07 | relative viability ([12]; first compound 158.11 µM): 0.217 | relative viability ([12]; first compound 500 µM): 0.0287 | relative viability ([13]; first compound 5 µM): 0.749 | relative viability ([13]; first compound 15.81 µM): 0.66 | relative viability ([13]; first compound 50 µM): 0.85 | relative viability ([13]; first compound 158.11 µM): 0.709 | relative viability ([13]; first compound 500 µM): 0.709 | relative viability ([14]; first compound 5 µM): 0.883 | relative viability ([14]; first compound 15.81 µM): 0.603 | relative viability ([14]; first compound 50 µM): 0.757 | relative viability ([14]; first compound 158.11 µM): 0.175 | relative viability ([14]; first compound 500 µM): 0.0891 | relative viability ([15]; first compound 5 µM): 0.866 | relative viability ([15]; first compound 15.81 µM): 0.774 | relative viability ([15]; first compound 50 µM): 0.758 | relative viability ([15]; first compound 158.11 µM): 0.498 | relative viability ([15]; first compound 500 µM): 0.277 | relative viability ([16]; first compound 5 µM): 0.756 | relative viability ([16]; first compound 15.81 µM): 0.421 | relative viability ([16]; first compound 50 µM): 0.858 | relative viability ([16]; first compound 158.11 µM): 0.169 | relative viability ([16]; first compound 500 µM): 0.0871 | relative viability ([17]; first compound 5 µM): 0.858 | relative viability ([17]; first compound 15.81 µM): 0.846 | relative viability ([17]; first compound 50 µM): 0.877 | relative viability ([17]; first compound 158.11 µM): 0.278 | relative viability ([17]; first compound 500 µM): 0.101 | relative viability ([18]; first compound 5 µM): 1.31 | relative viability ([18]; first compound 15.81 µM): 0.781 | relative viability ([18]; first compound 50 µM): 1.32 | relative viability ([18]; first compound 158.11 µM): 1.02 | relative viability ([18]; first compound 500 µM): 0.935 | relative viability ([19]; first compound 5 µM): 0.652 | relative viability ([19]; first compound 15.81 µM): 0.859 | relative viability ([19]; first compound 50 µM): 0.542 | relative viability ([19]; first compound 158.11 µM): 0.287 | relative viability ([19]; first compound 500 µM): 0.195 | relative viability ([20]; first compound 5 µM): 0.973 | relative viability ([20]; first compound 15.81 µM): 1.04 | relative viability ([20]; first compound 50 µM): 1.01 | relative viability ([20]; first compound 158.11 µM): 0.939 | relative viability ([20]; first compound 500 µM): 0.281 | relative viability ([21]; first compound 5 µM): 0.989 | relative viability ([21]; first compound 15.81 µM): 0.855 | relative viability ([21]; first compound 50 µM): 0.839 | relative viability ([21]; first compound 158.11 µM): 0.893 | relative viability ([21]; first compound 500 µM): 0.339
